Legend:
Type in all cases: cell-based, Arabidopsis thaliana
[1] = system: histone H4; assay: Northern expression analysis after aphidicolin synchronisation of MM1 (maximum signal = 100%)
Experimental: (§1) was analysed following the expression level of known cell cycle regulated genes. Synchronisation was performed as described in Example 2A, with the exception that two 7-day old cultures of the weekly sub-cultured cell suspension (210 ml each) were combined. 40 ml of combined culture was transferred into 200 ml of fresh MSS-medium in each of 10 separate flasks. After incubation for 24 hrs under conditions as described in Example 1, in the presence of 4.16 μg/ml aphidicolin, cells from 5 pooled flasks were washed through a nylon net (mesh size 47 μm) and washed with 2 litre MSS medium and shaken vigorously to remove the aphidicolin. Cells were transferred into a 50 ml plastic tube, washed again with MSS medium and centrifuged at 2500 rpm for 1 min (1075 rcf). Cells were resuspended and combined with the cells from the other 5 flasks similarly washed in a total volume of 300 ml fresh MSS-medium. 30 ml of this cell suspension was then added to 200 ml fresh MSS-medium in each of 10 separate flasks.
(§2) 1) 25 ml for Northern blot (transferred into 50 ml plastic tube, centrifuged at 2500 rpm for 1 min, the supernatant discarded, and the cell pellet shock-frozen in liquid nitrogen before storing in −80° C. freezer)
(§3) Samples were collected at the time point indicated (time of removal of aphidicolin equals time point 0 hrs) and were analysed for expression of the following genes by Northern blot:
histone H4 (ID/Accession no. ATH4 GB/M17133)
(§4) For each probe the maximum hybridisation signal obtained was defined as 100%.

[2] = system: CycB1; assay: as above
Experimental: as §1, §2, §3, §4

[3] = system: CycD2; assay: as above
Experimental: as §1, §2, §3, §4

[4] = system: Transgenic MM1-cycD2 cell lines; assay: Aphidicolin block/release of transgenic MM1-cycD2 cell lines; conditions: compared with non transgenic MM1 cell lines
Experimental: To re-establish liquid cultures of putative transgenic MM1-calli, callus tissue was transferred to a 55 mm petridish, carefully squeezed with a pipet tip and resuspended in 10 ml fresh MSS-medium (0.5 mg/l NM, 0.05 mg/l kinetin, 100 μg/ml kanamycin). The callus derived cell suspensions were incubated at 120 rpm, 23° C. under continuous light conditions in 100 ml Erlenmeyer flasks. After 10 days cultivation, 10 ml MSS-medium (0.5 mg/l NM, 0.05 mg/l kinetin) was added to the suspension cultures and left for further 7 days under conditions as above. 5 ml putative transgenic cell suspension was subcultured into 50 ml fresh MSS-medium (0.5 mg/l NM, 0.05 mg/l kinetin, 100 μg/ml kanamycin). This subculturing procedure was repeated twice at 7 days intervals in the same medium. Subsequent subculturing was carried out weekly into fresh MSS-medium (0.5 mg/l NAA, 0.05 mg/l kinetin without kanamycin selection), adjusting the transferred volume of cells to produce an inoculum of approximately the same as WT-MM1 culture. In the example of putative transgenic MM1-cycD2 cell suspensions, these were maintained by subculturing weekly 3.5 ml into 100 ml fresh MSS-medium (0.5 mg/l NAA, 0.05 mg/l kinetin) in 300 ml Erlenmeyer flasks. […] Putative transgenic calli or the suspension cultures thereof were analyzed using PCR and appropriate primers allowing to detect the cycD2 coding region. […]

[5] = 0 hrs after aphidicolin removal
[6] = 2 hrs after aphidicolin removal
[7] = 4 hrs after aphidicolin removal
[8] = 6 hrs after aphidicolin removal
[9] = 8 hrs after aphidicolin removal
[10] = 10 hrs after aphidicolin removal
[11] = 12 hrs after aphidicolin removal
[12] = 14 hrs after aphidicolin removal
[13] = 16 hrs after aphidicolin removal
[14] = 18 hrs after aphidicolin removal
[15] = 20 hrs after aphidicolin removal
[16] = 22 hrs after aphidicolin removal
[17] = 24 hrs after aphidicolin removal
[18] = 26 hrs after aphidicolin removal
[19] = 28 hrs after aphidicolin removal
[20] = 30 hrs after aphidicolin removal

## C[C@@]1(CO)[C@H](O)CC[C@@]2(C)[C@H]1CC[C@H]1C[C@@H]3C[C@@]12CC[C@]3(O)CO [aphidicolin]
[1]; [5]
  histone H4 %: 33.81%
  histone H4 Band intensity: 1029
[1]; [6]
  histone H4 %: 100.0%
  histone H4 Band intensity: 3046
[1]; [7]
  histone H4 %: 84.73%
  histone H4 Band intensity: 2580
[1]; [8]
  histone H4 %: 58.91%
  histone H4 Band intensity: 1794
[1]; [9]
  histone H4 %: 32.42%
  histone H4 Band intensity: 987
[1]; [10]
  histone H4 %: 38.70%
  histone H4 Band intensity: 1178
[1]; [11]
  histone H4 %: 28.53%
  histone H4 Band intensity: 868
[1]; [12]
  histone H4 %: 22.81%
  histone H4 Band intensity: 694
[1]; [13]
  histone H4 %: 12.75%
  histone H4 Band intensity: 388
[1]; [14]
  histone H4 %: 11.26%
  histone H4 Band intensity: 343
[1]; [15]
  histone H4 %: 19.43%
  histone H4 Band intensity: 591
[1]; [16]
  histone H4 %: 17.55%
  histone H4 Band intensity: 534
[1]; [17]
  histone H4 %: 17.77%
  histone H4 Band intensity: 541
[1]; [18]
  histone H4 %: 23.04%
  histone H4 Band intensity: 701
[1]; [19]
  histone H4 %: 14.35%
  histone H4 Band intensity: 437
[2]; [5]
  cycB1 %: 33.18%
  cycB1 Band intensity: 636
[2]; [6]
  cycB1 %: 62.69%
  cycB1 Band intensity: 1201
[2]; [7]
  cycB1 %: 47.09%
  cycB1 Band intensity: 902
[2]; [8]
  cycB1 %: 59.67%
  cycB1 Band intensity: 1143
[2]; [9]
  cycB1 %: 69.42%
  cycB1 Band intensity: 1330
[2]; [10]
  cycB1 %: 83.86%
  cycB1 Band intensity: 1607
[2]; [11]
  cycB1 %: 89.57%
  cycB1 Band intensity: 1717
[2]; [12]
  cycB1 %: 100.0%
  cycB1 Band intensity: 1917
[2]; [13]
  cycB1 %: 76.51%
  cycB1 Band intensity: 1466
[2]; [14]
  cycB1 %: 90.81%
  cycB1 Band intensity: 1740
[2]; [15]
  cycB1 %: 77.04%
  cycB1 Band intensity: 1476
[2]; [16]
  cycB1 %: 45.09%
  cycB1 Band intensity: 864
[2]; [17]
  cycB1 %: 48.70%
  cycB1 Band intensity: 933
[2]; [18]
  cycB1 %: 49.18%
  cycB1 Band intensity: 942
[2]; [19]
  cycB1 %: 52.79%
  cycB1 Band intensity: 1012
[3]; [5]
  CycD2 %: 11.06%
  CycD2 Band intensity: 588
[3]; [6]
  CycD2 %: 18.49%
  CycD2 Band intensity: 984
[3]; [7]
  CycD2 %: 14.53%
  CycD2 Band intensity: 773
[3]; [8]
  CycD2 %: 20.73%
  CycD2 Band intensity: 1103
[3]; [9]
  CycD2 %: 21.64%
  CycD2 Band intensity: 1151
[3]; [10]
  CycD2 %: 32.02%
  CycD2 Band intensity: 1704
[3]; [11]
  CycD2 %: 51.04%
  CycD2 Band intensity: 2716
[3]; [12]
  CycD2 %: 77.14%
  CycD2 Band intensity: 4105
[3]; [13]
  CycD2 %: 66.51%
  CycD2 Band intensity: 3539
[3]; [14]
  CycD2 %: 100.0%
  CycD2 Band intensity: 5322
[3]; [15]
  CycD2 %: 83.89%
  CycD2 Band intensity: 4464
[3]; [16]
  CycD2 %: 46.62%
  CycD2 Band intensity: 2481
[3]; [17]
  CycD2 %: 64.44%
  CycD2 Band intensity: 3429
[3]; [18]
  CycD2 %: 68.56%
  CycD2 Band intensity: 3648
[3]; [19]
  CycD2 %: 69.98%
  CycD2 Band intensity: 3724
[3]; [20]
  CycD2 %: 62.66%
  CycD2 Band intensity: 3334
[4]
  synchronisation by aphidicolin block/release: could be synchronized in a similar way as non transgenic MM1 cell lines

Source: patent US20040014215A1, “Synchronised arabidopsis cell suspensions and uses thereof” (priority 2000, published 2004)
